Counter-ions that a name gives are not always drawn.
Tests used:
[1] = molecular target: Proton Pump (H^+/K^+-ATPase) (Sus scrofa, UniProt P19156); experiment: Inhibitory effects on proton pump (H^+/K^+-ATPase) activity; format: biochemical; settings: hog gastric vesicles; K^+ stimulated H^+/K^+-ATPase activity; 30 minutes at 37° C.
[2] = system: basal gastric acid secretion; experiment: Inhibitory effects on basal gastric acid secretion in pylorus-ligated rats (Shay's rat model); format: in vivo, Sprague Dawley (SD) rats; settings: oral, one hour before pylorus ligation, total acid output 5 hours after ligation
Protocol: Inhibitory effects of the compounds of the present invention on basal gastric acid secretion were performed according to Shay's rat model (Shay, H., et al., 1945, gastroenterology, 5, 43-61). Male Sprague Dawley (SD) rats (200±10 g body weight) were divided into […] (n=5) and fasted for 24 hours with free access to water. Control group was orally administered with 0.5% methylcellulose alone and the other groups were orally administered with test compounds suspended in 0.5% methylcellulose solution at doses of 1, 3 and 10 mg/kg/5 ml one hour before pylorus ligation.
Under ether anesthesia, the abdomens of the rats were incised and then the pylorus was ligated. 5 hours after ligation, the animals were sacrificed, and the gastric contents were collected. The collected contents were centrifuged at 1,000×g for 10 minutes to obtain the gastric juice. Total acid output was measured by 0.01N NaOH volume (ueq/ml) for automatic titration of the gastric juice to pH 7.0 and the ED50s of test compounds were calculated using the Litchfield-Wilcoxon method. % inhibitory activity was calculated from the following equation and the results are shown in Table 2. % inhibitory activity of test compound=(total acid output of control group−total acid output of the group treated with test compounds)/total acid output of control group×100

Chain of Proton Pump (H^+/K^+-ATPase) (P19156 2-1034 limits assumed): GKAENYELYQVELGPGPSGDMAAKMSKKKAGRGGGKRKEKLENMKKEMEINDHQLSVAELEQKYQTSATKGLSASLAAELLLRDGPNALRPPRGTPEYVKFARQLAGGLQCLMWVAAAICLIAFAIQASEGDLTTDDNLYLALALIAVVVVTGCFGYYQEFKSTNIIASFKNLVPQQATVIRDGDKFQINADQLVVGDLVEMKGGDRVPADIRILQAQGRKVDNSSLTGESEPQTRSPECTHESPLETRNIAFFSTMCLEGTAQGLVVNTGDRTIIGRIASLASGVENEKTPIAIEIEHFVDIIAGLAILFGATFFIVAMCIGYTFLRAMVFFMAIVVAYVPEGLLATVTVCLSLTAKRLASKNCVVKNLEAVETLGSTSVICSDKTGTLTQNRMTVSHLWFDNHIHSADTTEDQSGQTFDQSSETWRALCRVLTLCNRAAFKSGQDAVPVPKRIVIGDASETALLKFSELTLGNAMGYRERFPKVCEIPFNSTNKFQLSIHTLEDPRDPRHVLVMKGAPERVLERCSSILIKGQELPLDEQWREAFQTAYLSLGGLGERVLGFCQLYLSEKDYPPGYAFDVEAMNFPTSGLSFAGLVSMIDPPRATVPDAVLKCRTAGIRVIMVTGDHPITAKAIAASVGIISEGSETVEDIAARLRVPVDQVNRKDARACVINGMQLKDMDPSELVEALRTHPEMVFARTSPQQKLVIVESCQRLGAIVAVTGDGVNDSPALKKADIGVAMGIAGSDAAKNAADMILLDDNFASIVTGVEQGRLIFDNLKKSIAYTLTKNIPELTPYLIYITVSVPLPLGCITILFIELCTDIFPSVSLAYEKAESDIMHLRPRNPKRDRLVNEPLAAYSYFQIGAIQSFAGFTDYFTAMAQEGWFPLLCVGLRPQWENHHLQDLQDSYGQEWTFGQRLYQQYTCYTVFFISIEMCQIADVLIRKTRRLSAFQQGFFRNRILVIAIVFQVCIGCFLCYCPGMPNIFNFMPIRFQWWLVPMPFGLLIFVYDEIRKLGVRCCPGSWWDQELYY
Chain of Proton Pump (H^+/K^+-ATPase) (P18434 whole entry partner): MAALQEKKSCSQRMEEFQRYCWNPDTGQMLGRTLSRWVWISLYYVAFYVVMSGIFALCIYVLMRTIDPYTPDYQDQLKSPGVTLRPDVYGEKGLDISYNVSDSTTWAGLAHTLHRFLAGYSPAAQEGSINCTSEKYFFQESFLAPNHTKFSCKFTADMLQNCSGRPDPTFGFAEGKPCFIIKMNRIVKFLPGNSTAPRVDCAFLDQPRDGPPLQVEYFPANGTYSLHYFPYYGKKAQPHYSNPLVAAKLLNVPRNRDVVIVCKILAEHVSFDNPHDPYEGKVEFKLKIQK

Compound	IC50 [1] [µM]	ED50 [2] [mg/kg]
C=COCCn1c(C)c(C)c2ccnc(N3CCc4ccccc4C3)c21.Cl [Example 511, 1-(2-vinyloxyethyl)-7-(1,2,3,4-tetrahydroisoquinolin-2-yl)-2,3-dimethyl-1H-pyrrolo[2,3-c]pyridine hydrochloride]	0.42	2.1
Cc1c(C)n(Cc2ccc(C(C)(C)C)cc2)c2c(N3CCc4ccccc4C3)nccc12.Cl [Example 507, 1-(4-tert-butylbenzyl)-7-(1,2,3,4-tetrahydroisoquinolin-2-yl)-2,3-dimethyl-1H-pyrrolo[2,3-c]pyridine hydrochloride]	–	3.1
Cc1c(C)n(Cc2cccc(F)c2)c2c(NCc3ccc(F)cc3)nccc12.Cl [Example 207, 1-(3-fluorobenzyl)-7-(4-fluorobenzylamino)-2,3-dimethyl-1H-pyrrolo[2,3-c]pyridine hydrochloride]	–	8.3
Cc1c(C)n(Cc2ccc(F)cc2)c2c(NCc3ccc(Cl)cc3)nccc12.Cl [Example 218, 7-(4-chlorobenzylamino)-1-(4-fluorobenzyl)-2,3-dimethyl-1H-pyrrolo[2,3-c]pyridine hydrochloride]	–	4.1
Cc1c(C)n(Cc2ccccc2)c2c(C=Cc3ccccc3)nccc12 [Example 418, 1-benzyl-2,3-dimethyl-7-styryl-1H-pyrrolo[2,3-c]pyridine hydrochloride]	0.29	–
[1-allyl-7-(3,4-dihydro-1H-isoquinolin-2-yl)-2,3-dimethyl-1H-pyrrolo[2,3-c]pyridin-5-yl]-methylamine hydrochloride [Example 887]	0.009	–
CCn1c(C)c(C)c2cc(C(=O)N3CC=CCC3)nc(N3CCc4ccccc4C3)c21 [Example 809, [7-(3,4-dihydro-1H-isoquinolin-2-yl)-1-ethyl-2,3-dimethyl-1H-pyrrolo[2,3-c]pyridin-5-yl]-(3,6-dihydro-2H-pyridin-1-yl)-methanone hydrochloride]	0.059	–
[7-(3,4-dihydro-1H-isoquinolin-2-yl)-1-(3-fluorobenzyl)-2,3-dimethyl-1H-pyrrolo[2,3-c]pyridin-5-yl]-methylamine hydrochloride [Example 888]	0.02	–
C=CCn1c(C)c(C)c2cc(C#N)nc(N3CCc4ccccc4C3)c21 [Example 684, 1-allyl-7-(3,4-dihydro-1H-isoquinolin-2-yl)-2,3-dimethyl-1H-pyrrolo[2,3-c]pyridin-5-carbonitrile]	0.49	–
CSc1ccc(-c2nccc3c(C)c(C)n(Cc4ccc(C)cc4)c23)cc1 [Example 267, 2,3-dimethyl-1-(4-methylbenzyl)-7-(4-methylsulfanylphenyl)-1H-pyrrolo[2,3-c]pyridine hydrochloride]	0.11	–
C=Cc1ccc(-c2nccc3c(C)c(C)n(Cc4ccc(C)cc4)c23)cc1 [Example 244, 2,3-dimethyl-1-(4-methylbenzyl)-7-(4-vinylphenyl)-1H-pyrrolo[2,3-c]pyridine hydrochloride]	0.09	–
Cc1c(C)n(CC2CC2)c2c(NCc3ccccc3)nccc12 [Example 185, 7-benzylamino-1-cyclopropylmethyl-2,3-dimethyl-1H-pyrrolo[2,3-c]pyridine hydrochloride]	0.32	–
Cc1c(C)n(CC2OCCO2)c2c(N(C)Cc3ccc(F)cc3)nccc12 [Example 158, 1-(1,3-dioxolan-2-ylmethyl)-7-[N-(4-fluorobenzyl)-N-methyl]amino-2,3-dimethyl-1H-pyrrolo[2,3-c]pyridine hydrochloride]	0.27	–
C=CCn1c(C)c(C)c2ccnc(-c3ccc(F)cc3)c21 [Example 326, 1-allyl-7-(4-fluorophenyl)-2,3-dimethyl-1H-pyrrolo[2,3-c]pyridine hydrochloride]	0.306	–
Cc1ccc(Cn2c(C)c(C)c3ccnc(COc4ccc(C)cc4)c32)cc1 [Example 17, 2,3-dimethyl-1-(4-methylbenzyl)-7-(p-tolyloxymethyl)-1H-pyrrolo[2,3-c]pyridine hydrochloride]	0.43	–
COc1cccc(Cn2c(C)c(C)c3ccnc(N(C)Cc4ccc(F)cc4)c32)c1 [Example 151, 7-[N-(4-fluorobenzyl)-N-methyl]amino-1-(3-methoxybenzyl)-2,3-dimethyl-1H-pyrrolo[2,3-c]pyridine hydrochloride]	0.34	–

The next lines start with results.

IC50 [1] [µM]	Compound	ED50 [2] [mg/kg]
0.052	Cc1c(C)n(Cc2ccccc2)c2c(N3CCc4ccccc4C3)nccc12.Cl [Example 469, 1-benzyl-7-(1,2,3,4-tetrahydroisoquinolin-2-yl)-2,3-dimethyl-1H-pyrrolo[2,3-c]pyridine hydrochloride]	1.4
0.11	Cc1nc(Cn2c(C)c(C)c3ccnc(N4CCc5ccccc5C4)c32)cs1.Cl [Example 474, 1-(2-methylthiazol-4-ylmethyl)-7-(1,2,3,4-tetrahydroisoquinolin-2-yl)-2,3-dimethyl-1H-pyrrolo[2,3-c]pyridine hydrochloride]	11.9
0.38	CCC1c2ccccc2CCN1c1nccc2c(C)c(C)n(Cc3ccc(OC)cc3)c12 (stereo not drawn) [Example 583, 1-ethyl-2-[1-(4-methoxybenzyl)-2,3-dimethyl-1H-pyrrolo[2,3-c]pyridin-7-yl]-1,2,3,4-tetrahydroisoquinoline hydrochloride]	–
0.173	C=CCn1c(C)c(C)c2ccnc(-c3ccc(Cl)cc3)c21 [Example 300, 1-allyl-7-(4-chlorophenyl)-2,3-dimethyl-1H-pyrrolo[2,3-c]pyridine hydrochloride]	–
0.216	COc1cccc(Cn2c(C)c(C)c3cc(C(=O)N4CCC(C)CC4)nc(N4CCc5ccccc5C4)c32)c1 [Example 823, [7-(3,4-dihydro-1H-isoquinolin-2-yl)-1-(3-methoxybenzyl)-2,3-dimethyl-1H-pyrrolo[2,3-c]pyridin-5-yl]-(4-methylpiperidin-1-yl)-methanone hydrochloride]	–
0.42	Cc1c(C)n(Cc2ccccc2)c2c(NCc3ccc(Cl)cc3)nccc12 [Example 215, 1-benzyl-7-(4-chlorobenzylamino)-2,3-dimethyl-1H-pyrrolo[2,3-c]pyridine hydrochloride]	–
0.124	Cc1c(C)n(Cc2cccnc2)c2c(N3CCc4ccccc4C3)nccc12 [Example 516, 1-(pyridin-3-ylmethyl)-7-(1,2,3,4-tetrahydroisoquinolin-2-yl)-2,3-dimethyl-1H-pyrrolo[2,3-c]pyridine hydrochloride]	–
0.036	Cc1c(C)n(Cc2cccc(Cl)c2)c2c(N3CCc4ccccc4C3)nc(-c3nnnn3C)cc12 [Example 853, 2-[1-(3-chlorobenzyl)-2,3-dimethyl-5-(1-methyl-1H-tetrazol-5-yl)-1H-pyrrolo[2,3-c]pyridin-7-yl]-1,2,3,4-tetrahydroisoquinoline]	–
0.373	C=CCn1c(C)c(C)c2cc(C(=O)NCc3ccc4c(c3)OCO4)nc(N3CCc4ccccc4C3)c21 [Example 760, 1-allyl-7-(3,4-dihydro-1H-isoquinolin-2-yl)-2,3-dimethyl-N-(benzo[1,3]dioxol-5-ylmethyl)-1H-pyrrolo[2,3-c]pyridin-5-carboxamide hydrochloride]	–
0.034	CCN1CCN(C(=O)c2cc3c(C)c(C)n(CC4CC4)c3c(N3CCc4ccccc4C3)n2)CC1 [Example 818, [1-cyclopropylmethyl-7-(3,4-dihydro-1H-isoquinolin-2-yl)-2,3-dimethyl-1H-pyrrolo[2,3-c]pyridin-5-yl]-(4-ethylpiperazin-1-yl)-methanone hydrochloride]	–
0.044	Cc1c(C)n(Cc2ccccc2)c2c(N3CCc4ccccc4C3)nc(C(=O)N3CCOCC3)cc12 [Example 764, [1-benzyl-7-(3,4-dihydro-1H-isoquinolin-2-yl)-2,3-dimethyl-1H-pyrrolo[2,3-c]pyridin-5-yl]-(morpholin-4-yl)-methanone]	–
0.48	COCCn1c(C)c(C)c2cc(C(=O)n3ccnc3)nc(N3CCc4ccccc4C3)c21 [Example 842, [7-(3,4-dihydro-1H-isoquinolin-2-yl)-1-(2-methoxyethyl)-2,3-dimethyl-1H-pyrrolo[2,3-c]pyridin-5-yl]-(imidazol-1-yl)-methanone hydrochloride]	–
1.74	Cc1ccc(-c2nccc3c(C)c(C)n(Cc4ccc(Cl)cc4)c23)cc1 [Example 283, 1-(4-chlorobenzyl)-2,3-dimethyl-7-(p-tolyl)-1H-pyrrolo[2,3-c]pyridine hydrochloride]	–
0.24	Cc1c(C)n(Cc2cccc(F)c2)c2c(N3CCc4ccccc4C3)nc(Cl)cc12 [Example 657, 5-chloro-[1-(3-fluorobenzyl)-7-(1,2,3,4-tetrahydroisoquinolin-2-yl)]-2,3-dimethyl-1H-pyrrolo[2,3-c]pyridine hydrochloride]	–
0.07	Cc1c(C)n(CC2CC2)c2c(NCc3ccc(F)cc3)nccc12 [Example 226, 1-cyclopropylmethyl-7-(4-fluorobenzylamino)-2,3-dimethyl-1H-pyrrolo[2,3-c]pyridine hydrochloride]	–
0.42	CCC1c2ccccc2CCN1c1nccc2c(C)c(C)[nH]c12 (stereo not drawn) [Example 574, 2-(2,3-dimethyl-1H-pyrrolo[2,3-c]pyridin-7-yl)-1-ethyl-1,2,3,4-tetrahydroisoquinoline hydrochloride]	–
0.43	COc1ccc(Cn2c(C)c(C)c3ccnc(N4CCc5ccccc5C4C)c32)cc1 (stereo not drawn) [Example 558, 2-[1-(4-methoxybenzyl)-2,3-dimethyl-1H-pyrrolo[2,3-c]pyridin-7-yl]-1-methyl-1,2,3,4-tetrahydroisoquinoline hydrochloride]	–

Reference: US7662832B2, “Pyrrolo[2,3-c]pyridine derivatives and processes for the preparation thereof” (priority 2004, dated 2010)
